According to patent US7091025B2, “Malathion carboxylesterase” (priority 1995, dated 2006):
Read-outs that look alike come from different tables or passages of the source.

What was measured:
[1] = tested on: whole fly homogenates of L. cuprina strains; assay: Chlorfenvinphos hydrolysis by whole fly homogenates; type: biochemical
Procedure: Enzyme samples were diluted in 0.1M imidazole-HCl buffer pH 7.0 (“imidazole buffer”) to a final volume of 50 μl. Reactions were started by the addition 0.5 μl of (^14C-ethyl)-chlorfenvinphos (CVP, 306.5 MBq/mmole, Internationale Isotope Munchen) from a 7.5 mM stock solution in ethanol. The reaction was incubated at 30° C. and stopped by the addition of 300 μl dichloromethane and 150 μl of water followed by vigorous vortex mixing. The reactions were centrifuged to separate phases and 150 μl of the upper, aqueous phase was taken for scintillation counting to determine the amount of ^14C-diethylphosphate produced by hydrolysis of CVP. Incubations with boiled enzyme were also performed to control for non-enzymic hydrolysis of CVP.
Whole fly homogenates of malathion resistant (strains RM-8, 60NE 1.1, 4.2, Beverly 6.2, Hampton Hill 6.1, Hampton Hill 6.2, Woodside 5.2, Rop Rmal 1, M22.2 6.3, M27.1 4.1), diazinon resistant (Gunning 107, Inverell 22, Q4, RM2.6, Llandillo 103, Sunbury 5.2) and susceptible (LBB 101, Llandillo 104, LS2) strains of L. cuprina were tested for esterase-mediated hydrolysis of CVP, a general OP (ie not a malathion-type OP). All 10 malathion resistant strains had greater CVP hydrolytic activities (1.5–3.0 pmol/min/mg) than the 3 susceptible strains (0.5–1.0 pmol/min/mg, but less activity than the 6 diazinon resistant strains (8.2–30.0 pmol/min/mg).

adult female L. cuprina = type: in vivo; conditions: for RF (Dz/para R): ratio of the LD50 of Llandillo 103 with the LD50 of LS2 / RF (Mal R): ratio of the LD50 of Woodside 5.2 with the LD50 of LS2: L. cuprina, NS = not significantly different from unity; for LD50 LS2 (OP Susceptible), with 95% confidence limits: strain LS2, topical in dioctylphthalate; for LD50 LS2 (OP Susceptible), with 95% confidence limits / LD50 Llandillo 103 (Dz/para Resistant), with 95% confidence limits / LD50 Woodside 5.2 (Mal Resistant), with 95% confidence limits: mortality at 24 hours; for LD50 Llandillo 103 (Dz/para Resistant), with 95% confidence limits: strain Llandillo 103, topical; for LD50 Woodside 5.2 (Mal Resistant), with 95% confidence limits: strain Woodside 5.2, topical
From the text: (§1) The following organophosphorus compounds were used: diazinon (O,O-diethyl O-2-isopropyl-6-methylpyrimidin-4-yl phosphorothioate, 91%, Mallinckrodt), parathion-methyl (O,O-dimethyl O-4-nitrophenyl phosphorothioate, 97.0%, Bayer), parathion (O,O-diethyl O-4-nitrophenyl phosphorothioate, 99%, Pestanal grade, Riedel-de-Haën), fenthion (O,O-dimethyl O-[3-methyl-4-(methylthio)phenyl]phosphorothioate, 98.8%, Bayer), fenthion-ethyl (O,O-diethyl O-[3-methyl-4-(methylthio)phenyl] phosphorothioate, a gift from Dr. G. Levot), dichlorvos (2,2-dichlorovinyl dimethyl phosphate, 99%, Chem Service), diethyl-dichlorvos (2,2-dichlorovinyl diethyl phosphate, a gift from Dr. J. Desmarchelier), di-isopropyl-dichlorvos (2,2-dichlorovinyl di-isopropyl phosphate, a gift from Dr. J. Desmarchelier), malathion (S-1,2-bis(ethoxycarbonyl)ethyl O,O-dimethyl phosphorodithioate, technical grade, Nufarm), isopropyl malathion (S-1,2-bis(ethoxycarbonyl)ethyl O,O-di-isopropyl phosphorodithioate, a gift from Dr. J. Desmarchelier).
(§2) The toxicity of OPs in adult female L. cuprina was determined 3 or 4 days post-eclosion by application of OPs to the scutellum in 0.7 μl dioctylphthalate (Busvine, J. R., Bell, J. D. and Guneidy, A. M., Bulletin of Entomological Research 54: 589, 1963;; Townsend, M. G. and Busvine, J. R., Entomology Experimental and Applied 12: 243, 1969). Each OP was applied to at least 20 flies at each of at least 5 different concentrations, spanning the dose causing 50% mortality (LD50). Control groups were treated with solvent but no OP. Mortality was determined 24 hours later. Data were fitted to the probit curve using the Probit Or LOgit (POLO-PC) computer program (LeOra Software, 1987).

M. domestica = conditions: cited from earlier work; for Resistance factor of M. domestica (in parentheses), Dz/para resistance type / Resistance factor of M. domestica (in parentheses), malathion resistance type: Bell and Busvine 1967, Townsend and Busvine 1969
[2] = tested on: adult L. cuprina, Woodside 5.2 strain (Mal Resistant); type: in vivo, Lucilia cuprina
From the text: as §1, §2
(§3) LD50s of 10 OPs were determined for the Woodside 5.2 strain (homozygous for a malathion resistance allele of LcαE7) and the Llandillo 103 strain (homozygous for a parathion/diazinon resistance allele of LcαE7). LD50s were also determined for the OP susceptible LS2 strain in order to calculate resistance factors (Table 8).

[3] = tested on: adult L. cuprina, Llandillo 103 strain (Dz/para Resistant); assay: toxicity of OPs in adult female L. cuprina, Llandillo 103 strain; type: in vivo, Lucilia cuprina
From the text: as §1, §2, §3

SMILES	CVP hydrolytic activity ([1]; whole fly homogenates of 3 susceptible strains)	CVP hydrolytic activity ([1]; whole fly homogenates of 6 diazinon resistant strains)	CVP hydrolytic activity ([1]; whole fly homogenates of 10 malathion resistant strains)	RF (Dz/para R): ratio of the LD50 of Llandillo 103 with the LD50 of LS2 (adult female L. cuprina)	RF (Mal R): ratio of the LD50 of Woodside 5.2 with the LD50 of LS2 (adult female L. cuprina)	LD50 LS2 (OP Susceptible), with 95% confidence limits (adult female L. cuprina)	LD50 Llandillo 103 (Dz/para Resistant), with 95% confidence limits (adult female L. cuprina)	LD50 Woodside 5.2 (Mal Resistant), with 95% confidence limits (adult female L. cuprina)	Resistance factor of M. domestica (in parentheses), Dz/para resistance type (M. domestica)	Resistance factor of M. domestica (in parentheses), malathion resistance type (M. domestica)	resistance factor towards dimethyl OP vs its diethyl analogue ([2]; Woodside 5.2)	resistance factor towards diethyl OP vs its dimethyl analogue [3]	resistance factor towards dimethyl OP vs its diethyl analogue ([2]; in vivo)	fold greater doses survived by flies with malathion resistance alleles of αE7 (adult female L. cuprina; in vivo)	resistance to malathion of malathion resistant M. domestica strains (M. domestica; literature)
CCOP(=O)(OCC)O/C(=C\Cl)c1ccc(Cl)cc1Cl [CVP, chlorfenvinphos]	0.5 to 1.0 pmol/min/mg	8.2 to 30.0 pmol/min/mg	1.5 to 3.0 pmol/min/mg												
CCOP(=S)(OCC)Oc1cc(C)nc(C(C)C)n1 [Diazinon, O,O-diethyl O-2-isopropyl-6-methylpyrimidin-4-yl phosphorothioate]				10	5	57 (40–79), ng/fly	550 (490–630), ng/fly	270 (240–300), ng/fly	20	2					
COP(=O)(OC)OC=C(Cl)Cl [Dichlorvos, 2,2-dichlorovinyl dimethyl phosphate]				4	7	41 (35–51), ng/fly	150 (95–190), ng/fly	270 (210–340) ng/fly	3	6	about two- to five-fold greater resistance factors				
CCOP(=O)(OC=C(Cl)Cl)OCC [Ethyl Dichlorvos, 2,2-dichlorovinyl diethyl phosphate]				7	3	360 (300–420), ng/fly	2370 (2320–2410), ng/fly	1100 (700–1500) ng/fly				about two-fold greater resistance factors			
COP(=S)(OC)Oc1ccc(SC)c(C)c1 [Fenthion, O,O-dimethyl O-[3-methyl-4-(methylthio)phenyl]phosphorothioate]				3 (3)	5	61 (42–87), ng/fly	210 (180–240) ng/fly	320 (210–490) ng/fly	3 (3)	7			about two- to five-fold greater resistance factors		
CCOP(=S)(OCC)Oc1ccc(SC)c(C)c1 [Fenthion-ethyl, O,O-diethyl O-[3-methyl-4-(methylthio)phenyl] phosphorothioate]				2	2	330 (290–370) ng/fly	690 (570–830) ng/fly	730 (660–870) ng/fly				no significant difference			
CC(C)OP(=O)(OC=C(Cl)Cl)OC(C)C [Isopropyl Dichlorvos, 2,2-dichlorovinyl di-isopropyl phosphate]					3	3500 (2200–4800), ng/fly	4600 (3400–5900) ng/fly	10200 (8800–12000) ng/fly							
CCOC(=O)CC(SP(=S)(OC(C)C)OC(C)C)C(=O)OCC (centres unmarked) [Isopropyl Malathion, S-1,2-bis(ethoxycarbonyl)ethyl O,O-di-isopropyl phosphorodithioate]					1.8	3600 (2700–4900), ng/fly	4900 (3700–6200), ng/fly	6400 (5900–7100), ng/fly		4					
CCOC(=O)CC(SP(=S)(OC)OC)C(=O)OCC (centres unmarked) [Malathion, S-1,2-bis(ethoxycarbonyl)ethyl O,O-dimethyl phosphorodithioate]					> 130	550 (480–610), ng/fly	490 (360–600) ng/fly	4 ng/fly	2	157				more than 100 fold	> 100 fold
CCOP(=S)(OCC)Oc1ccc([N+](=O)[O-])cc1 [Parathion, O,O-diethyl O-4-nitrophenyl phosphorothioate]				20	6	52 (48–55), ng/fly	1050 (890–1280), ng/fly	290 (270–310), ng/fly	35	3		about two-fold greater resistance factors			
COP(=S)(OC)Oc1ccc([N+](=O)[O-])cc1 [Parathion-methyl, O,O-dimethyl O-4-nitrophenyl phosphorothioate]				12	27	16 (11–20), ng/fly	185 (141–244), ng/fly	430 (390–490), ng/fly	9	10	about two- to five-fold greater resistance factors				
